{"source": "patent US11730742B2", "about": "“Pharmaceutical use of thiophene [3,2-d] pyrimidine-4-ketone compound” (SHANGHAI INSTITUTE OF MATERIA MEDICA, CHINESE ACADEMY OF …, priority 2018, dated 2023)", "key": {"[1]": {"system": "Human hepatic stellate cell line LX-2", "assay": "Inhibition of TGF-β-induced hepatic stellate cell activation (α-SMA, fibronectin by Western Blot)", "assay_type": "cell-based", "conditions": "LX-2, 10 ng/mL TGF-β plus compound for 24 hours; for inhibition of the activation of hepatic stellate cells HSC: α-SMA and fibronectin by Western Blot", "text": "Human hepatic stellate cell line LX-2 was used in cell function experiments. […] By comparing the expression levels of extracellular matrix in the TGF-β group and the cell group in which TGF-β and the compound to be tested were both added at the same time, the efficacy of the compound in alleviating liver fibrosis through hepatic stellate cells was characterized.\nThe cell experiment procedure was as follows. The human hepatic stellate cell line LX-2 was selected and inoculated into the treated 24-well plate at 7.5×10^4/well. After the cells were adhered overnight and they were subjected to starvation treatment for 12 hours, the cells were treated with 10 ng/mL TGF-β and the corresponding test compound for 24 hours and then protein samples were collected. The expression of extracellular matrix represented by α-smooth muscle myofilament (α-SMA) and fibronectin was detected by Western Blot."}, "[2]": {"system": "CCl4-induced liver fibrosis model mice", "assay": "CCl4-induced liver fibrosis model mice, multiple doses, comparison with sitagliptin (Example 6)", "assay_type": "in vivo", "conditions": "oral gavage twice a day, 6 weeks", "method": "In this experiment, CCl4-induced liver fibrosis model mice were used to investigate the effect of long-term oral administration of compound DC291407 under multiple doses on liver fibrosis in the model mice, and comparison was conducted with the same dose of sitagliptin.\nAnimal experiment: Male C57BL/6j mice were injected intraperitoneally with 2 mL/kg, 10% CCl4 (dissolved in olive oil) three times a week to induce liver fibrosis model. Two weeks after modeling, the blood was taken from the retro-ocular venous plexus of the mice, and serum ALT and AST indexes were detected. According to ALT, AST, body weight and other indexes, the mice were randomly divided into 8 groups with 10 mice in each group. There were the models control group (vehicle), DC291407 low-dose group (6 mg/kg), DC291407 middle-dose group (20 mg/kg), DC291407 high-dose group (60 mg/kg), sitagliptin low-dose group (6 mg/kg), Sitagliptin middle-dose group (20 mg/kg), sitagliptin high-dose group (60 mg/kg) and system positive compound OCA group (20 mg/kg). The mice were administered by oral gavage. The OCA group was administered once a day, and the other groups were administered twice a day. During the administration period, the animals' food intake and body weight were monitored. After 3 weeks of administration, the blood was taken from the retro-ocular venous plexus of the mice, and serum ALT and AST indexes were detected. After 6 weeks of administration, the blood was taken from the retro-ocular venous plexus of the mice and then the mice were killed by dislocation. The liver was taken and weighed, part of the liver was fixed with 4% paraformaldehyde, and part of the liver was frozen at −80° C. During the whole experiment, another 10 mice in the same cage were injected intraperitoneally with the same dose of olive oil as a normal control group (WT). This experiment reflected whether the compound had the effect of relieving liver fibrosis by detecting the levels of liver function indexes ALT and AST in serum, the content of hydroxyproline (a characteristic amino acid of collagen) in the liver, and liver pathological changes (Sirius scarlet staining) and the like."}, "[3]": {"system": "CCl4 induced liver fibrosis model mice", "assay": "CCl4 induced liver fibrosis model mice, long-term oral administration (Example 4)", "assay_type": "in vivo", "conditions": "for serum ALT level / serum AST level: 20 and 60 mg/kg oral gavage twice a day", "method": "In this experiment, CCl4 induced liver fibrosis model mice were used to investigate the effect of long-term oral administration of compound DC291407 on liver fibrosis in the model mice.\nAnimal experiment: Male C57BL/6j mice were injected intraperitoneally with 2 mL/kg, 10% CCl4 (dissolved in olive oil) three times a week to induce liver fibrosis model. Two weeks after modeling, the blood was taken from the retro-ocular venous plexus of the mice, and serum ALT and AST indexes were detected. According to ALT, AST, body weight and other indexes, the mice were randomly divided into 5 groups, each with 10 mice. There were the model control group (vehicle), DC291407 low-dose group (20 mg/kg), DC291407 high-dose group (60 mg/kg), positive compound OCA low-dose group (20 mg/kg), OCA high-dose group (40 mg/kg), respectively, and mice were administered by oral gavage. DC291407 was administered twice a day, and the other groups were administered once a day. During the administration period, the animals' food intake and body weight were monitored. After 3 weeks of administration, the blood was taken from the retro-ocular venous plexus of the mice, and serum ALT and AST indexes were detected. After 6 weeks of administration, the blood was taken from the retro-ocular venous plexus of the mice and then the mice were killed by dislocation. The liver was taken and weighed, part of the liver was fixed with 4% paraformaldehyde, and part of the liver was frozen at −80° C. During the whole experiment, another 10 mice in the same cage were injected intraperitoneally with the same dose of olive oil as a normal control group (WT). This experiment reflected whether the compound had the effect of relieving liver fibrosis by detecting the levels of liver function indexes ALT and AST in serum, the expression of α-SMA and Col1α1 gene levels in the liver, the content of hydroxyproline (a characteristic amino acid of collagen) in the liver, and liver pathological changes (Sirius scarlet staining) and the like."}, "[4]": {"system": "NAFLD model of ob/ob mice induced by high-fat diet", "assay": "NAFLD model of ob/ob mice induced by high-fat diet (Example 5)", "assay_type": "in vivo", "conditions": "8 weeks", "method": "In this experiment, the NAFLD model of ob/ob mice induced by high-fat diet was used to investigate the treatment effect of long-term oral administration of compound DC291407 on NAFLD.\nAnimal experiment: ob/ob obese mice were divided into 3 groups according to random blood glucose, random body weight, fasting blood glucose, and fasting body weight at the 8th week of age, with 9 mice in each group. There were the model control group (vehicle) and the DC291407 group (20 mg/kg), the positive compound Alogliptin group (20 mg/kg), respectively and mice were administered by oral gavage, twice a day. A group of 6 normal mice in the same cage was set up as a normal control group (WT). Except for the WT group, they were fed with normal feed, and the rest groups were fed with high-fat feed. The administration was continued for 8 weeks. During the administration, the animal's food intake and body weight were monitored. After the last administration, the animals were fasted for 6 hours and allowed to drink water freely. Then the body weight was measured, the blood was collected from the retro-ocular venous plexus, and liver was dissected. Part of the liver was placed in 4% paraformaldehyde, and the rest was stored in a refrigerator at −80° C. This experiment reflected whether the compound had the treating effect on NAFLD by detecting the levels of liver function indexes ALT and AST in the serum, the contents of TC and TG in the liver, the NAS score of liver pathology (HE staining) and the like."}, "[5]": {"conditions": "after 3 weeks of administration"}, "[6]": {"conditions": "after 6 weeks of administration"}, "[7]": {"conditions": "20 mg/kg oral gavage twice a day"}}, "note": "“Also recorded” adds a separate entry of the source.", "data": [{"compound": "COC(=O)c1cc2nc(N3CCC[C@@H](N)C3)n(Cc3ccccc3C#N)c(=O)c2s1", "note": "[DC291407, (R)-methyl-2-(3-aminopiperidin-1-yl)-3-(2-cyanobenzyl)-4-carbonyl-3,4-dihydrothieno[3,2-d]pyrimidine-6 carboxylic acid]", "values": [{"measurement": "inhibitory activity on HSC activation compared with positive control Alogliptin", "setting": "[1]", "value": "better than that of the positive control Alogliptin"}, {"measurement": "inhibition of the activation of hepatic stellate cells HSC", "setting": "[1]", "value": "concentration-dependently inhibited; also recorded: had an inhibitory effect"}, {"measurement": "ALT level in serum", "setting": "[2]; high-dose group 60 mg/kg", "value": "significantly reduce"}, {"measurement": "collagen content in the liver (Sirius scarlet stained sections, quantitative analysis)", "setting": "[2]; high-dose group 60 mg/kg", "value": "reduce the collagen content in the liver without dose dependence"}, {"measurement": "ALT level in serum", "setting": "[2]; low-dose group 6 mg/kg", "value": "significantly reduce"}, {"measurement": "AST level in serum", "setting": "[2]; low-dose group 6 mg/kg", "value": "significantly reduce"}, {"measurement": "collagen content in the liver (Sirius scarlet stained sections, quantitative analysis)", "setting": "[2]; low-dose group 6 mg/kg", "value": "reduce the collagen content in the liver without dose dependence"}, {"measurement": "content of hydroxyproline in liver tissues", "setting": "[2]; low-dose group 6 mg/kg", "value": "reduced the content of hydroxyproline in liver tissues without statistics significance"}, {"measurement": "ALT level in serum", "setting": "[2]; middle-dose group 20 mg/kg", "value": "significantly reduce"}, {"measurement": "AST level in serum", "setting": "[2]; middle-dose group 20 mg/kg", "value": "significantly reduce"}, {"measurement": "collagen content in the liver (Sirius scarlet stained sections, quantitative analysis)", "setting": "[2]; middle-dose group 20 mg/kg", "value": "reduce the collagen content in the liver without dose dependence"}, {"measurement": "serum ALT level", "setting": "[3]; [5]", "value": "no decrease"}, {"measurement": "serum AST level", "setting": "[3]; [5]", "value": "no decrease"}, {"measurement": "collagen content in the liver (Sirius scarlet stained pathological sections, quantitative analysis)", "setting": "[3]; [6]", "value": "reduce the collagen content in the liver without statistical difference"}, {"measurement": "content of hydroxyproline in liver tissues", "setting": "[3]; [6]", "value": "reduced"}, {"measurement": "expression of Col1α1 mRNA in liver tissues", "setting": "[3]; [6]", "value": "significantly down-regulated"}, {"measurement": "expression of α-SMA mRNA in liver tissues", "setting": "[3]; [6]", "value": "significantly down-regulated"}, {"measurement": "serum ALT level", "setting": "[3]; [6]", "value": "significantly reduced"}, {"measurement": "serum AST level", "setting": "[3]; [6]", "value": "significantly reduced"}, {"measurement": "effect on serum ALT, AST and liver TG compared with alogliptin", "setting": "[4]; 20 mg/kg each, twice a day", "value": "equivalent to that of alogliptin"}, {"measurement": "effect on steatosis compared with alogliptin", "setting": "[4]; 20 mg/kg each, twice a day", "value": "better than that of alogliptin"}, {"measurement": "overall improvement effect on NAS score compared with alogliptin", "setting": "[4]; 20 mg/kg each, twice a day", "value": "equivalent to that of alogliptin"}, {"measurement": "content of TG in liver tissue", "setting": "[4]; [7]", "value": "significantly reduce"}, {"measurement": "level of ALT in serum", "setting": "[4]; [7]", "value": "significantly reduce"}, {"measurement": "level of AST in serum", "setting": "[4]; [7]", "value": "significantly reduce"}, {"measurement": "lobular inflammation (NAS score, HE stained liver sections)", "setting": "[4]; [7]", "value": "a certain alleviating effect"}, {"measurement": "steatosis (NAS score, HE stained liver sections)", "setting": "[4]; [7]", "value": "improve steatosis"}]}, {"compound": "N#Cc1ccccc1Cn1c(N2CCC[C@@H](N)C2)nc2cc(C(=O)O)sc2c1=O", "note": "[DC291410, (R)-2-(3-aminopiperidin-1-yl)-3-(2-cyanobenzyl)-4-carbonyl-3,4-dihydrothieno[3,2-d]pyrimidine-6 carboxylic acid]", "values": [{"measurement": "inhibitory activity on HSC activation compared with positive control Alogliptin", "setting": "[1]", "value": "better than that of the positive control Alogliptin"}, {"measurement": "inhibition of the activation of hepatic stellate cells HSC", "setting": "[1]", "value": "concentration-dependently inhibited"}]}, {"compound": "N[C@@H](CC(=O)N1CCn2c(nnc2C(F)(F)F)C1)Cc1cc(F)c(F)cc1F", "note": "[sitagliptin, reference compound]", "values": [{"measurement": "ALT level in serum", "setting": "[2]; high-dose group 60 mg/kg", "value": "significantly reduced"}, {"measurement": "AST level in serum", "setting": "[2]; high-dose group 60 mg/kg", "value": "significantly reduced"}, {"measurement": "ALT level in serum", "setting": "[2]; low-dose group 6 mg/kg", "value": "no effect"}, {"measurement": "AST level in serum", "setting": "[2]; low-dose group 6 mg/kg", "value": "no effect"}, {"measurement": "collagen content in the liver (Sirius scarlet stained sections, quantitative analysis)", "setting": "[2]; low-dose group 6 mg/kg", "value": "significantly reduce the collagen content in the liver"}, {"measurement": "AST level in serum", "setting": "[2]; middle-dose group 20 mg/kg", "value": "significantly reduced"}]}]}
